From US20250049776A1, “AUTOPHAGY INDUCING COMPOUNDS AND USES THEREOF, IN PARTICULAR FOR A SYSTEMIC TREATMENT OF DISEASES AND CONDITIONS” (Samsara Therapeutics Inc., priority 2021, published 2025)

Columns and labels:
Type in all cases: cell-based
SH-SY5Y cells = experiment: Acidic vesicle formation in SH-SY5Y cells (LysoTracker Deep Red); settings: 24 hours
Protocol: This is evidence for significant stimulation of autophagy by this compound under these conditions. A brief description of the procedure is outlined here: • Day 1: Cells were seeded at 15K cells/well in the middle 60 wells of 6×96 well Cellvis imaging plates • Day 2: Media was replaced with 90 μl of DMEM/F12 (+10% FBS/1% P/S) containing NucBlue Live and the cells were treated with 10 μl of compound (10× concentrated) in triplicate for 24 hours. • Day3: Treatment was removed and cells were incubated for 30 minutes with LysoTracker™ Deep Red dye. Cells were washed twice with media and immediately imaged on EVOS M7000 at x20 (6 images per well, 30 minutes imaging time/plate). Images were analysed using Celleste Image analysis software.

[1] = tested on: Human osteosarcoma U20S cells; experiment: Assay to measure lysosome and autolysosome formation (acidic vesicle formation, LysoView/LysoTracker staining); settings: for increase in acidic vesicle formation: U20S cells, relative to DMSO-treated control (10 μM); for activation at 0.8 µM: Homo sapiens, U2OS cells, concentration of 0.8 μM, read-out: Activity (percentage increase in acidic vesicle formation over the DMSO-treated control), Table 2
How it was run: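 U2OS cells treated with compounds in DMSO for 24 h, then stained 45 min at 37 °C with 1× LysoView 633 or 50 nM LysoTracker Deep Red, with Hoechst nuclear counterstain. Live-cell fluorescence imaging at 37 °C; acidic vesicle formation judged against DMSO-treated control.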

[2] = tested on: U2OS cell line stabling expressing RFP-eGFP-hLC3b; experiment: Tandem reporter assay (autophagic flux, RFP-only puncta); settings: Homo sapiens, RFP-only puncta as percentage of DMSO-treated control, 24 hours; for activity at 1 µM: read-out: Autolysosome % DMSO activity (compound concentration of 1 μM); for activity at 10 µM: read-out: Autolysosome % DMSO activity (compound concentration of 10 μM)
Protocol: Selected compounds of this invention were also assessed for their ability to stimulate autophagy using a U20S cell line stabling expressing RFP-eGFP-hLC3b (a tandem reporter cell line). During the process of autophagy, the cargo to be degraded is first enveloped by organelles called autophagosomes. These autophagosomes then fuse with lysosomes, causing them to become acidified and their digestive enzymes to become activated. The term “autophagic flux” is used to represent the dynamic process of autophagy: autophagic flux refers to the whole process of autophagy, including autophagosome formation, maturation, fusion with lysosomes, subsequent breakdown and the release of macromolecules back into the cytosol (Zhang X J, Chen S, Huang K X, Le W D. Why should autophagic flux be assessed? Acta Pharmacol Sin. 2013 May; 34(5): 595-9. doi: 10.1038/aps.2012.184. Epub 2013 Mar. 11). Compounds that stimulate autophagic flux stimulate the dynamic process of autophagy (the whole process of autophagy).
LC3b is a protein found in the membrane of autophagosomes which has been used to generate genetic reporters of autophagy in cells. In these systems a tandem fusion of LC3b is engineered with two fluorescent proteins of different wavelengths: one which is acid sensitive (for example eGFP, which fluoresces green) and the other which is acid insensitive (for example RFP, which fluoresces red). Cells expressing RFP-eGFP-hLC3b can be examined using fluorescent microscopy: the autophagosomes present will fluoresce in both channels (either yellow in an overlay of both channels or puncta that are present in both the individual red and green channels) but the autolysosomes present will fluoresce in the RFP (red) channel only. Using a fluorescent microscope, the number of autophagosomes and autolysosomes can be counted, allowing for the monitoring of both the induction of autophagy (total puncta count) and the rate of autophagic flux (ratio of red-only to red-and-green puncta). The influence of small molecules on autophagy induction and flux can be assessed using this system by comparison to a non-treated control.
Representative Procedure: Human osteosarcoma U2OS cells stably expressing RFP-eGFP-hLC3b were seeded (10,000 cells/well) into a 96-well glass-bottom plate (Cell Carrier Ultra, Perkin Elmer) in DMEM Glutamax media (Gibco) supplemented with 10% Fetal Bovine Serum (FBS) and antibiotics (100 u/ml penicillin, 100 μg/ml streptomycin, Invitrogen), then incubated overnight in a humified atmosphere at 37° C. and 5% CO2. The cells were then treated with the compounds of interest, dissolved in DMSO, in a duplicated 5- or 10-point dose-response. 8 wells were treated with an equivalent volume of DMSO, 4 with 0.3 μM torin-1 as a positive control (MCE) and 4 wells with 0.4 μM torin-1 plus 0.2 μM bafilomycin (MCE) as a control for flux inhibition. The cells were returned to the incubator and the treatment continued for 24 hours. After treatment, the media was aspirated off and the cells fixed with a solution of 4% formaldehyde+1% glutaraldehyde (Sigma) in dPBS (plus magnesium and calcium, Gibco).
Fixation was allowed to proceed for 15 minutes at room temperature then the fixative solution discarded and replaced with PBS (Gibco) plus Hoescht 33342 ([…], Sigma). After 30 minutes the plates were imaged on an Opera Phenix confocal microscope (Perkin-Elmer) using a 40× water objective, collecting using DAPI, mCherry and GFP channels. Cells were detected based upon the staining of their nuclei with DAPI using the Harmony image analysis software (Perkin-Elmer) and the number of autophagosomes (GFP and RFP puncta) and autolysosomes (RFP only puncta) per cell were counted using the spot picking function within the software.

| Compound | Fold change at compound concentration of 0.8 μM (acidic vesicle formation relative to DMSO-treated control) (SH-SY5Y cells) | Fold change at compound concentration of 10 μM (acidic vesicle formation relative to DMSO-treated control) (SH-SY5Y cells) | increase in acidic vesicle formation [1] | activation at 0.8 µM [1] [%] | activity at 1 µM [2] [%] | activity at 10 µM [2] [%] |
| --- | --- | --- | --- | --- | --- | --- |
| CC(C)N(C(=O)c1ccc(-c2cnn(-c3ccc(F)cc3)c2)[nH]1)C1CCNCC1 [Compound 310, 5-[1-(4-fluorophenyl)-1H-pyrazol-4-yl]-N-(piperidin-4-yl)-N-(propan-2-yl)-1H-pyrrole-2-carboxamide] | 1.9 | 4.5 | only a slight increase | – | – | – |
| CC(C)N(C(=O)c1ccc(-c2cnn(-c3ccccc3)c2)[nH]1)[C@H]1CCNC1 [Compound 314, 5-(1-phenyl-1H-pyrazol-4-yl)-N-(propan-2-yl)-N-[(3S)-pyrrolidin-3-yl]-1H-pyrrole-2-carboxamide] | 2.0 | 14.3 | – | > 100 | – | – |
| CC(C)N(C(=O)c1csc(-c2cnn(-c3ccccc3)c2)n1)[C@H]1CCNC1 [Compound 311, 2-(1-phenyl-1H-pyrazol-4-yl)-N-(propan-2-yl)-N-[(3S)-pyrrolidin-3-yl]-1,3-thiazole-4-carboxamide] | 2.3 | 3.5 | – | 50 to 100 | – | – |
| CC(C)N(C(=O)c1ccc(-c2cnn(-c3ccccc3)c2)[nH]1)[C@@H]1CCNC1 [Compound 313, 5-(1-phenyl-1H-pyrazol-4-yl)-N-(propan-2-yl)-N-[(3R)-pyrrolidin-3-yl]-1H-pyrrole-2-carboxamide] | 2.0 | 13.2 | – | > 100 | – | – |
| CC(C)N(C(=O)c1csc(-c2cnn(-c3ccccc3)c2)n1)C1CC2(CNC2)C1 [Compound 319, N-{2-azaspiro[3.3]heptan-6-yl}-2-(1-phenyl-1H-pyrazol-4-yl)-N-(propan-2-yl)-1,3-thiazole-4-carboxamide] | 2.4 | 2.7 | – | 30 to 50 | – | – |
| CC(C)N(C(=O)c1csc(-c2cnn(-c3ccccc3)c2)n1)C1C[C@H]2CNC[C@H]2C1 (stereo partly drawn) [Compound 320, N-[(3aR,6aS)-octahydrocyclopenta[c]pyrrol-5-yl]-2-(1-phenyl-1H-pyrazol-4-yl)-N-(propan-2-yl)-1,3-thiazole-4-carboxamide] | 1.9 | 3.3 | only a slight increase | – | – | – |
| CC(C)N(C(=O)c1csc(-c2cnn(-c3ccccc3)c2)n1)C1CCNCC1(F)F (stereo not drawn) [Compound 382, N-(3,3-difluoropiperidin-4-yl)-2-(1-phenyl-1H-pyrazol-4-yl)-N-(propan-2-yl)-1,3-thiazole-4-carboxamide] | – | – | – | – | 96 | 108 |
| CC(C)N(C(=O)c1csc(-c2cnn(C(C)(C)C)c2)n1)C1CCNCC1 [Compound 394, 2-(1-tert-butyl-1H-pyrazol-4-yl)-N-(piperidin-4-yl)-N-(propan-2-yl)-1,3-thiazole-4-carboxamide] | – | – | – | – | 114 | 176 |
| O=C(c1coc(-c2cnn(-c3ccccc3OC(F)(F)F)c2)n1)N1C[C@H]2C[C@@H]1CN2 [Compound 378, (1R,4R)-2-(2-{1-[2-(trifluoromethoxy)phenyl]-1H-pyrazol-4-yl}-1,3-oxazole-4-carbonyl)-2,5-diazabicyclo[2.2.1]heptane] | – | – | – | – | 122 | 199 |
